Non-standard residues stand in square brackets, D forms with d. Residues, ends and D or L forms follow the SMILES beside them.
Key:
∆Impα3 [1] = molecular target: T1, ∆Impα3 (Homo sapiens, UniProt O00629); details: literature value for L-NLS counterpart, ref [5],[6],[7], read-out: Kd (ITC) (L-NLS Peptide); cited from earlier work
T1 construct: IBB-depleted species of Impα3 (residues 64–521 of the intact protein); made in house
T1 sequence (O00629 64-521): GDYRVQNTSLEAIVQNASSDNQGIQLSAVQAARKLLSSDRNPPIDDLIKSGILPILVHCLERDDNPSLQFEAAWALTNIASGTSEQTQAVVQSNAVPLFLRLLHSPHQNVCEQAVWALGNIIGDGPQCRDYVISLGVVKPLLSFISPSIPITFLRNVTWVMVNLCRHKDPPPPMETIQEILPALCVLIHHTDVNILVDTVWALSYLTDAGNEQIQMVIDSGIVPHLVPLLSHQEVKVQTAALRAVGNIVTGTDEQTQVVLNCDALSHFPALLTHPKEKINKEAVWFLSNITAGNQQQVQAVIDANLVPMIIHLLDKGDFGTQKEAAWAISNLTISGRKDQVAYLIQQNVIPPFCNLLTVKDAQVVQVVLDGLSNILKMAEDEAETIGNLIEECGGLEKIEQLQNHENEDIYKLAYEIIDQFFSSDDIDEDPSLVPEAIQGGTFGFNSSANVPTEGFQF
Description: (§1) Table 3 Kinetic and thermodynamic parameters of the binding reaction of D-NLS peptides to ∆Impα3 ^a. | column: Kd (μM) (ITC/Fluorescence) (L-NLS Peptide) ^c || We also used ITC to determine the thermodynamic binding parameters in the association of each of the peptides to both importin species (Figure 4). […] For D-NLS-NUPR1L, the values of enthalpy, ∆H, were −2.5 ± 0.2 and −4.5 ± 0.7 kcal mol^−1 for the binding to Impα3 and ∆Impα3, respectively. On the other hand, the values previously ...

Impα3 [2] = molecular target: T2, Impα3 (Homo sapiens, UniProt O00629); details: literature value for L-NLS counterpart, ref [5],[6],[7], read-out: Kd (ITC) (L-NLS Peptide); cited from earlier work
T2 construct: Human importin α3 isoform (residues 1–521); made in house
T2 sequence (O00629 1-521): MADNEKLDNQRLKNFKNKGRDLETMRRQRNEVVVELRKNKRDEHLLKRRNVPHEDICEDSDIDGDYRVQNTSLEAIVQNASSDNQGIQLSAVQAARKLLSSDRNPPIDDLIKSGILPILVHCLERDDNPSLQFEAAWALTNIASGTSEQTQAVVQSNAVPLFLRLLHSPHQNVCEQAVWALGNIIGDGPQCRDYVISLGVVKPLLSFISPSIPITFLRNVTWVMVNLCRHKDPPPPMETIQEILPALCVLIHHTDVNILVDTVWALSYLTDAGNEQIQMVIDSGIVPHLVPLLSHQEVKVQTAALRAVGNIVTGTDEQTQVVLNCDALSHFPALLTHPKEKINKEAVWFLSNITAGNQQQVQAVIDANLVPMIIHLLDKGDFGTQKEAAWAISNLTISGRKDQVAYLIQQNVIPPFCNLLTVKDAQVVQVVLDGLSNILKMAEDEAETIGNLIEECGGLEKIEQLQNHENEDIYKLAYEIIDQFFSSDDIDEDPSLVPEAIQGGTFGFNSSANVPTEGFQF
Description: as §1, with “Table 2” for “Table 3”, “to Impα3” for “to ∆Impα3”

[3] = L-NLS counterparts, literature values, ref [5],[6],[7], cited from earlier work
Description: Table 1 Hydrodynamic properties of the D-NLS peptides ^a. | column: D (cm^2 s^−1) × 10^6 (Rh, Å) (L-NLS) ^d

[4] = Translational diffusion NMR (DOSY) of NLS peptides; type: physicochemical; details: ~100 μM peptide, 50 mM deuterated Tris pH 7.2, 100% D2O, 10 °C
Description: For the four peptides, we measured the experimental value of D for dioxane ranging from (1.2 ± 0.1) × 10^−5 to (1.05 ± 0.02) × 10^−5 cm^2 s^−1 in each solution containing the corresponding peptide; we assumed a hydrodynamic radius of 2.12 Å for dioxane (Table 1) under any condition. […] Furthermore, the values of D were similar for the D- and L-peptides, and the latter were already being described as disordered. Thus, we can conclude that the four D-peptides were monomeric and disordered, like the L-form counterparts, and, then, there was no difference in the hydrodynamic properties of the peptides by changing the enantiomeric nature of the residues.
The NMR spectra were acquired at 10 °C on a Bruker Avance III spectrometer (Bruker GmbH, Mannheim, Germany), equipped with a triple-resonance probe and z-pulse field gradients. All NMR experiments with D-NLS peptides were carried out in 50 mM deuterated Tris buffer (not corrected for isotope effects), pH 7.2. Spectra were calibrated with TSP, by considering pH-dependent changes in its chemical shifts; probe temperature was calibrated with pure methanol.
The typical D-NLS peptide concentrations in DOSY experiments were ~100 μM, and 128 scans were acquired, in which the gradient strength was varied linearly in sixteen steps, between 2 and 95% of the total power of the gradient coil. Measurements of the translational self-diffusion coefficient, D, were performed with the pulsed-gradient spin-echo sequence in the presence of 100% D2O. Details on the experimental conditions and fitting of the resulting curves have been described elsewhere. Gradient strength was calibrated by using the value of D for the residual proton water signal in a sample containing 100% D2O, in a 5 mm tube [23]. Gradient length was 2.5 ms; the time between the two pulse gradients in the sequence was 250 ms; and the recovery delay between the bipolar gradients was 100 μs. The signals from methyl groups between 0.8 and 1.0 ppm were used for peak integration, for all the D-NLS peptides. A final concentration of 1% of dioxane, which was assumed to have a hydrodynamic radius Rh of 2.12 Å [23], was added to the solution of each peptide.

Impα3 [5] = molecular target: T2, Impα3; assay: Isothermal titration calorimetry (ITC) with Impα3; type: binding; details: Impα3, 50 mM Tris pH 8.0, 25 °C
Experimental: (§2) Calorimetric titrations for testing the interaction of D-NLS peptides with either Impα3 or ΔImpα3 were carried out in an VP-ITC instrument (Microcal, Northhamptom, MA, USA). The importin species were loaded into the cell calorimeter and the corresponding D-NLS peptide in the syringe in Tris buffer 50 mM, pH 8.0. All experiments were carried out at 25 °C.
(§3) These twenty-nine ITC experiments involved sequential injections of microliter amounts (10 µL) of a stock solution of D-NLS peptide (in a concentration range of 150–200 µM) into the calorimetric cell (1.4 mL); the cell initially contained protein solution (15 µM for either Impα3 or ΔImpα3 in protomer units). To correct for the heat evolved due to the dilution effect for adding the ligand (peptide) solution to the calorimetric cell, an independent experiment was performed, in which the same peptide solution was injected into the calorimetric cell loaded with buffer. After correction for the dilution heat, the isotherm was fitted to a binding model that assumed the existence of a single set of binding sites, by using the software v1.41 provided by the manufacturer.

∆Impα3 [6] = molecular target: T1, ∆Impα3; assay: Isothermal titration calorimetry (ITC) with ∆Impα3; type: binding; details: ∆Impα3, 50 mM Tris pH 8.0, 25 °C
Experimental: as §2, §3

Impα3 [7] = molecular target: T2, Impα3; assay: Biolayer interferometry (BLI) binding to Impα3; details: peptide 1–10 μM, 25 °C
Experimental: (§4) The association (kon) and dissociation (koff) rate constants of the binding of D-NLS peptides to either Impα3 or ∆Impα3 were determined by using a BLItz system (ForteBio, Pall, Barcelona, Spain). The buffer used in the experiments was that recommended by the manufacturer. […] The peptide concentrations were in a range from 1 to 10 μM during the association step. The general scheme of the protein association/dissociation reactions in the BLItz system for the D-NLS peptides was as follows: 30 s of initial baseline acquisition with the 10 × kinetics buffer (provided by the manufacturer); 120 s of loading either Impα3 and ∆Impα3 into the biosensor; 30 s of baseline acquisition with the 10 × kinetics buffer; 120 s of association of each peptide to the biosensor (which had been previously loaded with the importin species); and 120 s of monitoring of the dissociation of each peptide from the biosensor. All experiments were carried out at 25 °C.
(§5) Fittings of the BLI sensorgrams was carried out by using KaleidaGraph, as previously described. The interferometry response during the association step, R(t) (measured in response units, RU), and the binding rate, dR(t)/dt, could be used to evaluate the kinetics of the formation of the complex between Impα3/∆Impα3 and each D-NLS, according to:(2) dR/dt=konD-NLSRmax−Rt−koffR(t) where Rmax is proportional to the total concentration of biosensor-bound importin species; and [D-NLS] represents the concentration of the corresponding D-NLS peptide.
(§6) In Equation (2), R(t) is given by:(3) Rt= Req−Reqe^(−kobs t−t0) where Req is the steady-state (or equilibrium) response obtained at infinite time, when dR(t)/dt = 0, and t0 = 180 s is the time at which the association step between biosensor-immobilized Impα3/∆Impα3 and D-NLS in the solution started. We fitted the experimentally obtained R(t) under any condition as:(4) Rt= Req−Reqe^−kobs t−t0−R’eq(t−t0) where R^′eq was included to consider the lineal drift observed at longer times.
(§7) The dissociation process was always fitted to a single exponential, with R(t) given by:(6) Rt=R1 e^(−kofft−t0)−R^″eq(t−t0) where t0 = 300 is the time at which the dissociation of the D-NLS from the biosensor-bound Impα3/∆Impα3 started in our experimental set-up, R1 is the response level when dissociation starts, and the parameter R^″eq considers the linear drift observed at longer times.
(§8) The experiments were repeated at least twice for each peptide with each importin species.

∆Impα3 [8] = molecular target: T1, ∆Impα3; assay: Biolayer interferometry (BLI) binding to ∆Impα3; details: BLItz, ∆Impα3 immobilized via His-tag (0.25 μM), peptide 1–10 μM, 10 × kinetics buffer, 25 °C, error from pseudo-first order fit, at least two repeats, read-out: kon
Experimental: as §4, §5, §6, §7, §8

[9] = sequence synthesized in reverse order; ref [38]; cited from earlier work
Description: A few additional conclusions can be drawn from our results, in the context of their relevance for understanding the importance of importin in the regulation of the nucleocytoplasmic transport of cargo proteins. Although we cannot rule out that the intrinsic high flexibility of Impα3 could be involved in its lack of selectivity towards different stereoisomers, we believe the following: (i) the intrinsic disorder of the isolated NLS peptides (derived from the cargos), as shown by NMR (Figure 1 and Figure 2), and (ii) the fact that the peptides remained disordered upon binding to the importin spe ...

L-NLS-NUPR1: wild-type isolated NLS region of NUPR1, comprising residues 54 to 74 (TNRPSPGGHERKLVTKLQNSE; UniProt O60356 54-74, looked up, fragment)
Kd (∆Impα3 [1]): 950 nM | Kd (Impα3 [2]): 1700 nM | Hydrodynamic radius Rh (L-NLS) ([3]; estimated from Rh of dioxane): 11 ± 1 Å | Diffusion coefficient D (L-NLS) [3]: 1.85 ± 0.04 10^-6 cm^2 s^-1

CC(=O)N[C@H](CCCNC(=N)N)C(=O)N[C@@H](C(=O)N[C@H](CCCNC(=N)N)C(=O)N[C@H](CCCNC(=N)N)C(=O)N[C@H](CCC(=O)O)C(=O)N[C@H](CCC(N)=O)C(=O)N[C@H](C)C(=O)N[C@H](CC(C)C)C(=O)N[C@H](CCCNC(=N)N)C(=O)N[C@@H](C(=O)N[C@H](CC(N)=O)C(=O)N[C@H](Cc1c[nH]c2ccccc12)C(=O)N1CCC[C@@H]1C(=O)N[C@H](C)C(=O)N1CCC[C@@H]1C(=O)NCC(=O)NCC(=O)N[C@H](Cc1c[nH]cn1)C(=O)N[C@H](CCC(=O)O)C(=O)N[C@H](CCCNC(=N)N)C(=O)N[C@H](CCCCN)C(=O)N[C@@H](C(=O)N[C@H](C)C(=O)N[C@H](CCC(N)=O)C(N)=O)C(C)C)[C@H](C)O)[C@H](C)O [D-NLS-NUPR1L] (Ac-[dR][dT][dR][dR][dE][dQ][dA][dL][dR][dT][dN][dW][dP][dA][dP]GG[dH][dE][dR][dK][dV][dA][dQ]-NH2)
Diffusion coefficient D [4]: 2.0 ± 0.3 cm^2 s^−1 × 10^6 | enthalpy ∆H (Impα3 [5]): -2.5 ± 0.2 kcal/mol | enthalpy ∆H (∆Impα3 [6]): -4.5 ± 0.7 kcal/mol | kon (Impα3 [7]; BLItz, Impα3 immobilized via His-tag (0.25 μM), 10 × kinetics buffer, error from pseudo-first order fit, at least two repeats, read-out: kon): 68000 ± 7000 M⁻¹ s⁻¹ | koff (Impα3 [7]; Impα3 immobilized via His-tag, error from pseudo-first order fit (Equation 5)): 0.069 ± 0.04 s⁻¹ | kon (∆Impα3 [8]): 51200 ± 700 M⁻¹ s⁻¹

DLKVRKAA
Binding, dependence on stereochemistry [9]: binding insensitive to L-/D-stereochemistry has been observed

From PMC12386367, “Importin α3 Is Tolerant to Nuclear Localization Signal Chirality” (International Journal of Molecular Sciences, 2025)
